Here are results for six substances from publication PMC6353875, “The EZH2 SANT1 domain is a histone reader providing sensitivity to the modification state of the H4 tail” (Scientific Reports, 2019).

Assay [1] has as its target T1, EZH2 SRM-SANT1 (residues 141–251) (Homo sapiens, UniProt Q15910).
T1 construct: All additional studies were performed with the SRM-SANT1 construct containing residues 141–251; GST (N, cleaved yes); made in house; host or cells: E. coli Rosetta2 (DE3) pLysS
The experiment in a line: NMR titration (1H-15N HSQC) of SRM-SANT1 with histone peptides. It is filed as binding. As to conditions: for chemical shift perturbations (CSPs) upon peptide addition: 1H-15N HSQC overlay, 25 °C, 0.05–0.10 mM 15N-SRM-SANT1, increasing concentrations of peptide; for effect of H4K16 acetylation on interaction/binding (NMR): 1H-15N HSQC titration of SRM-SANT1 with H4K16ac(1–21). An excerpt: (§1) The complete human EZH2 cDNA was obtained from OpenBiosystems (GE Healthcare, Accession #:BC010858). EZH2 SANT1 (residues 159–251) and SRM-SANT1 (residues 141–251) were subcloned into a pDEST15 (N-terminal GST-tag) expression vector using the Gateway Recombination cloning method (Invitrogen, ThermoScientific) with a PreScission Protease cleavage site engineered between the GST-tag and the N-terminus of EZH2 SRM-SANT1. Mutants were generated in the 141–251 construct using site-directed mutagenesis (Q5 mutagenesis kit, New England Biolabs).
(§2) For purification, cell pellets were thawed on ice and lysed by emulsiflex in a lysis buffer containing 150 mM NaCl, 50 mM Tris (pH 6.5), 3 mM DTT, 0.1% Triton X-100 and DNaseI. Lysate was cleared at 18,000 g for 1 hour at 4 °C. The soluble supernatant was incubated with glutathione agarose resin (ThermoFisher Scientific) and washed extensively with a buffer containing 900 mM NaCl, 50 mM Tris (pH 6.5) and 3 mM DTT. The GST-tag was cleaved by incubation with PreScission Protease overnight and SRM-SANT1 was further purified by FPLC using […] over a Source15S column and size exclusion chromatography over a superdex 75 column. The final buffer contained 150 mM NaCl, 50 mM Tris (pH 6.5), 3 mM DTT, with or without 5 mM EDTA.
Biotinylated histone H4K16ac (1–21, AS-64847-1) was obtained from Anaspec. All histone peptides were dissolved in H2O at a concentration of 20 mM, and the pH adjusted to ~7.0. DNA oligos were obtained from IDT. The DNA was annealed by mixing equimolar amounts of single stranded oligos. DNA was heated to 95 °C for 10 minutes before allowing to cool overnight. The annealed DNA was further purified by size exclusion chromatography over a superdex 75 column in a buffer containing 150 mM NaCl, 50 mM Tris (pH 6.5), 3 mM DTT, with 5 mM EDTA. Titrations were performed by collecting ^15N-HSQC spectra on 0.05–0.10 mM ^15N-EZH2 SRM-SANT1 while titrating in increasing concentrations of the respective ligands. Titration experiments were performed at 25 °C on a Bruker Avance II 800 MHz NMR spectrometer equipped with a 5 mm triple resonance cryoprobe. Data was processed and analyzed using NMRPipe and CcpNmr[53],[54].
Kd values were determined for all individual residues with significant Δδ in each individual titration.

A further assay relates to SRM-SANT1. The experiment in a line: Biotinylated histone peptide pulldown. It is filed as binding, human. Conditions: for effect of modification on SRM-SANT1 binding (pulldown): 1 μg SRM-SANT1 with 1 μg Biotin-tagged H4 peptide, overnight 4 °C, 150 mM NaCl, 50 mM Tris (pH 6.5), 3 mM DTT, streptavidin resin, coomassie, ImageJ, triplicate, vs corresponding unmodified peptide, p-value < 0.05; for effect of H4 modification on binding of SANT1 to H4 (abstract summary): summary statement in abstract.
From the text: as §1, §2
Biotinylated unmodified histone H4 (1–23, SKU:12-0029), unmodified H4 (11–27, SKU:12-0035), H4K16ac (1–23, SKU:12-0033), H4K20ac (1–24, SKU:12-0052) and H4K20me3 (11–27, SKU:12-0038) peptides were obtained from EpiCypher. 1 μg of purified SRM-SANT1 was incubated with 1 μg of Biotin-tagged H4 peptides unmodified or containing single modifications. Reactions were incubated overnight rocking end over end at 4 °C in a binding buffer containing 150 mM NaCl, 50 mM Tris (pH 6.5), 3 mM DTT. Streptavidin sepharose resin (25 μL of 50% slurry, GE Life Sciences) was added to each reaction and rocked end over end at 4 °C for two hours. The reactions were then spun at 2500 × g, supernatant decanted and beads washed with 500 μL of the binding buffer four times. After the final wash, beads were resuspended in 5x SDS loading dye, ran on a 4–20% gradient gel and visualized using coomassie staining. Gels were imaged using an ImageQuant LAS 4000 imager. Quantification of triplicate pull down experiments was performed using ImageJ[59].

Entries after “also recorded” stand apart in the source; their conditions may differ.

T1 sequence (Q15910 141-251): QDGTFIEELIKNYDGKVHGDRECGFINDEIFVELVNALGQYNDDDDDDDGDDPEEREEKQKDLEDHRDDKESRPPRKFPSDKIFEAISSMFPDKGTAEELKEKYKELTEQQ

As to “H4(1–10): unmodified histone H4 (1–10), custom synthesized by GenScript (SGRGKGGKGL)”, the “chemical shift perturbations (CSPs) upon peptide addition” value in assay [1] is given as “very minor CSPs throughout SANT1, indicative of non-specific interactions”.
“H4(11–21): unmodified histone H4 (11–21), custom synthesized by GenScript”: in assay [1], the “chemical shift perturbations (CSPs) upon peptide addition” value is “confirms binding to the basic patch of H4; also recorded: very similar CSPs as was observed for H4(1–21)”. The “fold weaker binding (Kd) than H4 tail (1–21)” value in assay [1] (ratio of Kd to that of H4 (1–21)) is given as ~ 2 x.
Take “H4K16ac(1–21): Biotinylated histone H4K16ac (1–21, AS-64847-1), obtained from Anaspec; NMR titration”: the “effect of H4K16 acetylation on interaction/binding (NMR)” value is reported as “abrogates binding” in assay [1] and “substantially abrogates interaction with the H4 tail” in assay [1] (listed as H4K16ac peptide).
On to “H4K16ac: H4K16ac (1–23, SKU:12-0033), biotinylated peptide from EpiCypher; pulldown”, for which, in the assay with SRM-SANT1, the “effect of modification on SRM-SANT1 binding (pulldown)” value is reported as “significant decreases in SRM-SANT1 binding” and the “effect of H4 modification on binding of SANT1 to H4 (abstract summary)” value is listed as “abrogate binding of SANT1 to H4”.
“H4K20ac: H4K20ac (1–24, SKU:12-0052), biotinylated peptide from EpiCypher”: in the assay on SRM-SANT1, the “effect of modification on SRM-SANT1 binding (pulldown)” value is reported as “decreased binding, though not statistically significantly” and the “effect of H4 modification on binding of SANT1 to H4 (abstract summary)” value is “abrogate binding of SANT1 to H4”.
In the same order, the values of “H4K20me3: H4K20me3 (11–27, SKU:12-0038), biotinylated peptide from EpiCypher” are “significant decreases in SRM-SANT1 binding” and “abrogate binding of SANT1 to H4”.
